Experiment [1] concerns S. aureus. The experiment is described as follows: Kill tests using S. aureus (SIK test). Format: cell-based. As to conditions: LAE.HCl at 200 ppm versus a product containing 27% ethanol and 1890 ppm of essential oils. The procedure:
One of the commercial products that was analyzed not only contains a large amount of ethanol, but contains three essential biocidal oils. Specifically it contains 900 ppm of eucalyptol, 490 ppm of Thymol, and 500 ppm of D-menthol, for a total of 1890 ppm of total active constituents. In contrast our invention is N^α-lauroyl-L-arginine-ethyl ester hydrochloride, also known as LAE.HCl, which is used as a preservative in the food and cosmetic industries. • 1. N^α—lauroyl-L-arginine-ethyl ester hydrochloride, (LAE.HCl) salt is naturally derived and metabolizes readily to L-arginine, an essential amino acid, lauric acid, and very low ppm amounts of ethanol. All degradation by products are found naturally in the body and are totally harmless. • 2. LAE.HCl has undergone extensive toxicity, and safety studies, and it is approved by the FDA and EPA for food and cosmetic industries. • 3. […] The formulation of our invention includes a natural sweetener xylitol. Xylitol is known to reduce cavities as well as inhibiting the adhesion of bacteria on enamel/dentin. The selection of xylitol has the above advantages over other natural or synthetic sweeteners. (“Science Daily”, Feb. 15, 2007) • 5. Substantivity product of this invention has been proven experimentally versus the existing commercial products resulting in longer-lasting efficacy, using a zone of inhibition tests
1. […]

Experiment [2] has as its system S. aureus. The experiment is described as follows: Substantivity test on 100% cotton fabric, zone of inhibition (ZOI). Format: cell-based. As to conditions: 600 ppm, dried on 100% cotton fabric, saliva added to plates. The procedure: 2. Substantivity tests on 100% cotton fabric using S. aureus as the microorganism/zone of inhibition (ZOI).
Both samples (600 ppm LAE.HCl and control) were applied to 100% cotton fabric at the same volumes and allowed to dry at room temperature. Samples were then placed in an agar plates inoculated with S. aureus and incubated. To these plates was added saliva from the same person to determine if either sample would produce a zone inhibition. A negative control was also run at the same time. Only the product of this invention gave a positive ZOI.

Each structure is given as a SMILES string.

On to `CCCCCCCCCCCC(=O)N[C@@H](CCCNC(=N)N)C(=O)OCC.Cl` [LAE.HCl, N^α-lauroyl-L-arginine-ethyl ester hydrochloride], for which, in the experiment on S. aureus [1], the kill result was “comparable kill”. Also, the “zone of inhibition (ZOI)” value in the experiment on S. aureus [2] was “positive ZOI”.
